We go through eight molecules from patent US8912200B2, “Alkynyl substituted pyrimidinyl-pyrroles active as kinases inhibitors” (Nerviano Medical Sciences S.R.L., priority 2011, dated 2014).

The target of assay [1] is T1, JAK2 kinase domain (Homo sapiens, UniProt O60674).
T1 construct: commercially available JAK2 kinase domain; purchased Invitrogen, Eugene, Oreg
As to the kind of experiment: Biochemical assay for inhibitors of JAK kinase activity (JAK2, 33P-γ-ATP/dowex resin). Particulars: JAK2 kinase domain 1 nM, 60 μM ATP. The essentials:
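Human JAK2 (1 nM) phosphorylated peptide BioDBn*306 (64 μM) with 60 μM ATP plus 3 nM 33P-γ-ATP in HEPES pH 7.5/MgCl2/DTT buffer, 60 min at room temperature. Unreacted ATP captured by Dowex resin; supernatant β-counted. IC50 from sigmoidal fit of ten-point 1:3 dilution curves.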

Assay [2] relates to JAK2 dependent human megakaryoblastic leukemia cell line SET-2. As to the kind of experiment: Cell proliferation assay (CellTiter-Glo, 72 hours). The settings on record: SET-2 cells. It is filed as cell-based. The essentials: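 About 5×10^3 SET-2 cells per well, in RPMI-1640 with 10% FBS, were exposed to inhibitor dilutions for 72 hours at 37 °C, 5% CO2. Viability read by CellTiter-Glo luminescence. IC50 from sigmoidal fitting of 8-point dilution curves.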

For assay [3], the target named is T2, Lyn full length (Homo sapiens, UniProt P07948).
T2 construct: The assay has been performed using Lyn full length
T2 sequence (P07948 whole entry): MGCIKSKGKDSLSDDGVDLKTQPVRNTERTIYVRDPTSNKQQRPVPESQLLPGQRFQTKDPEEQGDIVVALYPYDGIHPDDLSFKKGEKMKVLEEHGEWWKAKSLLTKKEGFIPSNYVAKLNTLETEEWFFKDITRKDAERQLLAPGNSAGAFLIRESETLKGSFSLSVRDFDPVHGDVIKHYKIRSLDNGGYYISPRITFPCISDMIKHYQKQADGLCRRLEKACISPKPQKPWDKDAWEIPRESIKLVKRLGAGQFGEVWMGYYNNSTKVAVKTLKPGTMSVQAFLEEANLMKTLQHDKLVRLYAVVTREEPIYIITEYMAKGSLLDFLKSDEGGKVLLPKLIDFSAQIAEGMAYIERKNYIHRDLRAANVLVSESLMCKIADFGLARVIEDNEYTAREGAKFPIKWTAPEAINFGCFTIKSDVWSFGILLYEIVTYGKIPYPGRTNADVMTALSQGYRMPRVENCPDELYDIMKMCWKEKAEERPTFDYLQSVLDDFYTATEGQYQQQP
The assay is described as follows: Biochemical assay for inhibitors of Lyn (Src family) kinase activity. The settings on record: Lyn full length 1 nM, 25 μM ATP. The essentials: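 Radiometric Lyn assay: 1 nM full-length enzyme in 50 mM HEPES pH 7.5 with 25 μM ATP plus 33P-γ-ATP and 250 μM ABI 1 peptide, 60 min at room temperature. Unreacted ATP removed by Dowex resin; supernatant β-counted. IC50 from sigmoidal fit of ten-point 1:3 dilution curves.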

T1 sequence (O60674 849-1124 limits assumed): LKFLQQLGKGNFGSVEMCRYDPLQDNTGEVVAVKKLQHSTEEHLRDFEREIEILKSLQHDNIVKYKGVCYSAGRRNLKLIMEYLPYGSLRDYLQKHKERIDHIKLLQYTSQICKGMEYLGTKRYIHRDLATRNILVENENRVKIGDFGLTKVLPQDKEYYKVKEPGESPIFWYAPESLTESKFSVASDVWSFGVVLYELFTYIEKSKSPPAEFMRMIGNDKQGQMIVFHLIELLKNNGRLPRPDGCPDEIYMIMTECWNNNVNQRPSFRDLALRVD

Regarding `Cc1ccc(Cl)cc1-c1[nH]c(-c2ccnc(N)n2)c(C#Cc2ccc(N3CCC(N(C)C)CC3)cc2)c1C(N)=O` [compound 96, 5-(2-Aminopyrimidin-4-yl)-2-(5-chloro-2-methylphenyl)-4-({4-[4-(dimethylamino)piperidin-1-yl]phenyl}ethynyl)-1H-pyrrole-3-carboxamide], the results for the IC50 in assay [1], in assay [2] (Homo sapiens) and in assay [3] were 0.004 µM, 0.21 µM and 0.093 µM, respectively.

`Cc1ccc(Cl)cc1-c1[nH]c(-c2ccnc(N)n2)c(C#Cc2ccc(N3CCC(N4CCCCC4)CC3)cc2)c1C(N)=O` [compound 97, 5-(2-Aminopyrimidin-4-yl)-4-{[4-(1,4′-bipiperidin-1′-yl)phenyl]ethynyl}-2-(5-chloro-2-methylphenyl)-1H-pyrrole-3-carboxamide]: the IC50 stood at 0.012 µM in assay [1], 0.74 µM in assay [2] (Homo sapiens) and 0.293 µM in assay [3].

Take `Cc1ccc(Cl)cc1-c1[nH]c(-c2ccnc(N)n2)c(C#Cc2ccc(N3CCC(N4CCCC4)CC3)cc2)c1C(N)=O` [compound 98, 5-(2-Aminopyrimidin-4-yl)-2-(5-chloro-2-methylphenyl)-4-({4-[4-(pyrrolidin-1-yl)piperidin-1-yl]phenyl}ethynyl)-1H-pyrrole-3-carboxamide]: the IC50 in assay [1] is 0.036 µM; in assay [2] (Homo sapiens) it was 1.64 µM; in assay [3], 0.208 µM.

As for `Cc1ccc(Cl)cc1-c1[nH]c(-c2ccnc(N)n2)c(C#Cc2ccc(N3CCNCC3)cc2)c1C(N)=O` [compound 99, 5-(2-Aminopyrimidin-4-yl)-2-(5-chloro-2-methylphenyl)-4-{[4-(piperazin-1-yl)phenyl]ethynyl}-1H-pyrrole-3-carboxamide], the results for the IC50 in assay [1], in assay [2] (Homo sapiens) and in assay [3] were 0.002 µM, 0.41 µM and 0.026 µM, respectively.

As to `CCc1ccc(Cl)cc1-c1[nH]c(-c2ccnc(N)n2)c(C#Cc2ccccc2NCCN(C)C)c1C(N)=O` [compound 101, 5-(2-Aminopyrimidin-4-yl)-2-(5-chloro-2-ethylphenyl)-4-[(2-{[2-(dimethylamino)ethyl]amino}phenyl)ethynyl]-1H-pyrrole-3-carboxamide], the figures for the IC50 in assay [1], in assay [2] (Homo sapiens) and in assay [3] were 0.005 µM, 0.2 µM and 0.025 µM, respectively.

For the molecule `CCc1ccc(Cl)cc1-c1[nH]c(-c2ccnc(N)n2)c(C#Cc2cccc(OC3CCN(C)CC3)c2)c1C(N)=O` [compound 102, 5-(2-Aminopyrimidin-4-yl)-2-(5-chloro-2-ethylphenyl)-4-({3-[(1-methylpiperidin-4-yl)oxy]phenyl}ethynyl)-1H-pyrrole-3-carboxamide], the values for the IC50 in assay [1], in assay [2] (Homo sapiens) and in assay [3] were 0.001 µM, 0.24 µM and 0.006 µM, respectively.

`CCc1ccc(Cl)cc1-c1[nH]c(-c2ccnc(N)n2)c(C#Cc2ccc(N3CCN(C)CC3)cc2)c1C(N)=O` [compound 103, 5-(2-Aminopyrimidin-4-yl)-2-(5-chloro-2-ethylphenyl)-4-{[4-(4-methylpiperazin-1-yl)phenyl]ethynyl}-1H-pyrrole-3-carboxamide]: the IC50 in assay [1] is 0.004 µM; in assay [2] (Homo sapiens), 0.18 µM; in assay [3] it was 0.023 µM.

With “[(2-Aminophenyl)ethynyl]-4-(2-Amino-phenylethynyl)-5-(2-amino-pyrimidin-4-yl)-2-(5-chloro-2-methyl-phenyl)-1H-pyrrole-3-carboxamide [compound 74]”, the half-maximal inhibitory concentration (IC50) in assay [1] came to 0.004 µM; in assay [2] it was 0.12 µM; in assay [3], 0.013 µM.
